Experimental data published in the NIST ThermoML archive (doi:10.1021/je200811n).

Settings: Hot wire method

F/C=C/C(F)(F)F [trans-1,3,3,3-tetrafluoropropene]
Settings | thermal conductivity [W/m/K]
262.32 K, 98 kPa, Gas | 0.01085
262.32 K, 15456 kPa, Liquid | 0.09473
262.36 K, 10416 kPa, Liquid | 0.09243
262.42 K, 488 kPa, Liquid | 0.08745
262.42 K, 5301 kPa, Liquid | 0.08997
262.42 K, 21223 kPa, Liquid | 0.09713
262.45 K, 15452 kPa, Liquid | 0.09456
262.49 K, 10417 kPa, Liquid | 0.09221
262.56 K, 488 kPa, Liquid | 0.08718
262.56 K, 5298 kPa, Liquid | 0.08972
262.61 K, 123 kPa, Gas | 0.01085
262.62 K, 107 kPa, Gas | 0.01086
262.63 K, 98 kPa, Gas | 0.01084
262.65 K, 80 kPa, Gas | 0.01085
262.67 K, 97 kPa, Gas | 0.01087
262.79 K, 21214 kPa, Liquid | 0.0972
262.84 K, 15455 kPa, Liquid | 0.09447
262.89 K, 10416 kPa, Liquid | 0.0922
262.96 K, 5304 kPa, Liquid | 0.0897
262.96 K, 21225 kPa, Liquid | 0.09681
262.98 K, 488 kPa, Liquid | 0.08717
262.99 K, 121 kPa, Gas | 0.0108
263 K, 15446 kPa, Liquid | 0.0942
263.01 K, 106 kPa, Gas | 0.01081
263.02 K, 97 kPa, Gas | 0.01085
263.04 K, 80 kPa, Gas | 0.01079
263.05 K, 98 kPa, Gas | 0.01086
263.06 K, 10416 kPa, Liquid | 0.09188
263.13 K, 5299 kPa, Liquid | 0.08937
263.16 K, 488 kPa, Liquid | 0.08692
263.36 K, 21219 kPa, Liquid | 0.09681
263.39 K, 119 kPa, Gas | 0.01089
263.4 K, 15447 kPa, Liquid | 0.0942
263.42 K, 104 kPa, Gas | 0.01088
263.43 K, 97 kPa, Gas | 0.01089
263.45 K, 80 kPa, Gas | 0.01089
263.45 K, 98 kPa, Gas | 0.01081
263.48 K, 10415 kPa, Liquid | 0.09186
263.55 K, 21219 kPa, Liquid | 0.09652
263.56 K, 5297 kPa, Liquid | 0.08933
263.59 K, 488 kPa, Liquid | 0.08681
263.6 K, 15455 kPa, Liquid | 0.09401
263.68 K, 10416 kPa, Liquid | 0.09153
263.77 K, 5291 kPa, Liquid | 0.08901
263.8 K, 488 kPa, Liquid | 0.08652
272.01 K, 173 kPa, Gas | 0.01193
272.22 K, 93 kPa, Gas | 0.01165
272.23 K, 118 kPa, Gas | 0.01168
272.23 K, 164 kPa, Gas | 0.01178
272.24 K, 170 kPa, Gas | 0.01181
272.27 K, 80 kPa, Gas | 0.01132
272.44 K, 180 kPa, Gas | 0.01146
272.47 K, 93 kPa, Gas | 0.01156
272.47 K, 117 kPa, Gas | 0.01157
272.47 K, 162 kPa, Gas | 0.01169
272.51 K, 78 kPa, Gas | 0.01132
272.73 K, 92 kPa, Gas | 0.01149
272.73 K, 159 kPa, Gas | 0.01161
272.74 K, 116 kPa, Gas | 0.0115
272.74 K, 177 kPa, Gas | 0.01151
272.76 K, 76 kPa, Gas | 0.01132
272.99 K, 157 kPa, Gas | 0.01156
273 K, 90 kPa, Gas | 0.01144
273.01 K, 114 kPa, Gas | 0.01146
273.03 K, 74 kPa, Gas | 0.01133
273.1 K, 175 kPa, Gas | 0.01153
273.28 K, 154 kPa, Gas | 0.01152
273.29 K, 89 kPa, Gas | 0.01139
273.3 K, 112 kPa, Gas | 0.01142
273.31 K, 73 kPa, Gas | 0.01134
273.47 K, 172 kPa, Gas | 0.01157
273.48 K, 166 kPa, Gas | 0.0116
273.58 K, 119 kPa, Gas | 0.01167
273.62 K, 94 kPa, Gas | 0.01167
273.64 K, 84 kPa, Gas | 0.01168
273.88 K, 163 kPa, Gas | 0.0116
274 K, 118 kPa, Gas | 0.01166
274.07 K, 93 kPa, Gas | 0.01171
274.08 K, 78 kPa, Gas | 0.01173
274.32 K, 160 kPa, Gas | 0.01166
274.45 K, 116 kPa, Gas | 0.01173
274.52 K, 92 kPa, Gas | 0.01174
274.54 K, 77 kPa, Gas | 0.01173
274.78 K, 158 kPa, Gas | 0.01168
274.92 K, 115 kPa, Gas | 0.01175
275.01 K, 91 kPa, Gas | 0.01175
275.03 K, 75 kPa, Gas | 0.01176
275.27 K, 155 kPa, Gas | 0.01171
275.43 K, 113 kPa, Gas | 0.01179
275.53 K, 90 kPa, Gas | 0.0118
275.55 K, 73 kPa, Gas | 0.01186
281.19 K, 491 kPa, Liquid | 0.08061
281.19 K, 20251 kPa, Liquid | 0.09143
281.22 K, 15223 kPa, Liquid | 0.08878
281.25 K, 10286 kPa, Liquid | 0.08621
281.25 K, 23293 kPa, Liquid | 0.09262
281.26 K, 20239 kPa, Liquid | 0.09104
281.27 K, 458 kPa, Liquid | 0.08057
281.27 K, 5355 kPa, Liquid | 0.08361
281.29 K, 15230 kPa, Liquid | 0.0886
281.32 K, 10282 kPa, Liquid | 0.08605
281.34 K, 5380 kPa, Liquid | 0.08336
281.37 K, 102 kPa, Gas | 0.01233
281.37 K, 144 kPa, Gas | 0.01241
281.37 K, 199 kPa, Gas | 0.01253
281.37 K, 244 kPa, Gas | 0.01266
281.57 K, 23287 kPa, Liquid | 0.09254
281.59 K, 243 kPa, Gas | 0.01263
281.59 K, 20208 kPa, Liquid | 0.09091
281.6 K, 199 kPa, Gas | 0.01245
281.61 K, 101 kPa, Gas | 0.01221
281.61 K, 142 kPa, Gas | 0.0123

Liquid
Settings | thermal conductivity [W/m/K]
263.15 K | 0.08688
273.15 K | 0.08321
